pEC50, pIC50: −log10 of the molar value. Where two headings read alike, the source gives them in different places.
Key:
human TLR8 = target: T1, human TLR8 (Homo sapiens, UniProt Q9NR97); test: In vitro human TLR8 binding reporter assay (HEK-Blue, NF-kB/AP1-inducible SEAP); assay type: cell-based; settings: HEK-Blue human TLR8 SEAP reporter cells; activity range classes; read-out: TLR8 Agonist EC50
T1 construct: host or cells: human HEK-Blue cells (HEK293-derived) co-expressing TLR8 and an NF-kB/AP1-inducible SEAP reporter
T1 sequence (Q9NR97 27-1041): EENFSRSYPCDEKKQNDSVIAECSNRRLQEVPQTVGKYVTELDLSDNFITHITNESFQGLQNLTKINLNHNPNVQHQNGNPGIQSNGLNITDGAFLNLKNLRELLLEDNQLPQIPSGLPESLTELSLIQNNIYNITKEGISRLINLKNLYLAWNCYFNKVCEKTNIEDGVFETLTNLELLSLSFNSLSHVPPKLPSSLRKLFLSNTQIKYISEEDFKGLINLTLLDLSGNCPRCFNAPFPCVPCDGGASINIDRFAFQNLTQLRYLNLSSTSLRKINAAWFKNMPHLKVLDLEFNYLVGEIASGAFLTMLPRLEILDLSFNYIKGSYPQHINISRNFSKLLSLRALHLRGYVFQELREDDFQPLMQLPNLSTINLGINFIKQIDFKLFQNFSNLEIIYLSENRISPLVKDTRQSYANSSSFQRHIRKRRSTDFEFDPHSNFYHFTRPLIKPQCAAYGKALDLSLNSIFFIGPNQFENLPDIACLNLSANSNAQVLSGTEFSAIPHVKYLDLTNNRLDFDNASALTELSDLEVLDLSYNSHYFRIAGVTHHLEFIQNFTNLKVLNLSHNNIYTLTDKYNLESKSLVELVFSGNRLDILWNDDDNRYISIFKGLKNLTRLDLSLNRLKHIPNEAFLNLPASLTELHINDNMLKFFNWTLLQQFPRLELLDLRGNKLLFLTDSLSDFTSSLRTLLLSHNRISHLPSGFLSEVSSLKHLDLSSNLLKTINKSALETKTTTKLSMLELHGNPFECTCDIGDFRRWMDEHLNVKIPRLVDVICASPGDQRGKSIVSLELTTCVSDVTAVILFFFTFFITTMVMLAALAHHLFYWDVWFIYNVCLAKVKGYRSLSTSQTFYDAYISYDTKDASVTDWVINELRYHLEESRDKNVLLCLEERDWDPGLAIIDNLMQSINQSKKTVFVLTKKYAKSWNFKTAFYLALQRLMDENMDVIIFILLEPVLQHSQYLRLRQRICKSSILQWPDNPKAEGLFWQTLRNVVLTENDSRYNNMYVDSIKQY
Summary of the method: (§1)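 Cells are seeded and grown for 24 h. Compounds or DMSO are then added and incubated 18 h at 37 °C. Quanti-Blue is added, and SEAP is read after thirty minutes. EC50 values are normalized, with RLU from 50 μM reference standard setting 100% Ymax.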

[1] = system: IL-1β production in PMA-differentiated THP-1 cells; test: Measurement of IL-1β production in PMA-differentiated THP-1 cells (ELISA, 4 hours); assay type: cell-based, human; settings: assayed using one or more of the described procedures, read-out: NLRP3 hIL1B IC50
Summary of the method: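 IL-1β released into supernatant was measured by ELISA after a 4-hour compound exposure (final DMSO 1%, concentrations such as 100 down to 0.1 μM). Cells: THP-1 pretreated 24 h with 10 μg/ml PMA, then trypsinized and seeded at 1×10^6/ml in 2% FBS RPMI.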

human TLR7 = target: T2, human TLR7 (Homo sapiens, UniProt Q9NYK1); test: In vitro human TLR7 binding reporter assay (HEK-Blue, NF-kB/AP1-inducible SEAP); assay type: cell-based; settings: HEK-Blue human TLR7 SEAP reporter cells; activity range classes; read-out: TLR7 Agonist EC50
T2 construct: host or cells: human HEK-Blue cells (HEK293-derived) co-expressing TLR7 and an NF-kB/AP1-inducible SEAP reporter
T2 sequence (Q9NYK1 27-1049): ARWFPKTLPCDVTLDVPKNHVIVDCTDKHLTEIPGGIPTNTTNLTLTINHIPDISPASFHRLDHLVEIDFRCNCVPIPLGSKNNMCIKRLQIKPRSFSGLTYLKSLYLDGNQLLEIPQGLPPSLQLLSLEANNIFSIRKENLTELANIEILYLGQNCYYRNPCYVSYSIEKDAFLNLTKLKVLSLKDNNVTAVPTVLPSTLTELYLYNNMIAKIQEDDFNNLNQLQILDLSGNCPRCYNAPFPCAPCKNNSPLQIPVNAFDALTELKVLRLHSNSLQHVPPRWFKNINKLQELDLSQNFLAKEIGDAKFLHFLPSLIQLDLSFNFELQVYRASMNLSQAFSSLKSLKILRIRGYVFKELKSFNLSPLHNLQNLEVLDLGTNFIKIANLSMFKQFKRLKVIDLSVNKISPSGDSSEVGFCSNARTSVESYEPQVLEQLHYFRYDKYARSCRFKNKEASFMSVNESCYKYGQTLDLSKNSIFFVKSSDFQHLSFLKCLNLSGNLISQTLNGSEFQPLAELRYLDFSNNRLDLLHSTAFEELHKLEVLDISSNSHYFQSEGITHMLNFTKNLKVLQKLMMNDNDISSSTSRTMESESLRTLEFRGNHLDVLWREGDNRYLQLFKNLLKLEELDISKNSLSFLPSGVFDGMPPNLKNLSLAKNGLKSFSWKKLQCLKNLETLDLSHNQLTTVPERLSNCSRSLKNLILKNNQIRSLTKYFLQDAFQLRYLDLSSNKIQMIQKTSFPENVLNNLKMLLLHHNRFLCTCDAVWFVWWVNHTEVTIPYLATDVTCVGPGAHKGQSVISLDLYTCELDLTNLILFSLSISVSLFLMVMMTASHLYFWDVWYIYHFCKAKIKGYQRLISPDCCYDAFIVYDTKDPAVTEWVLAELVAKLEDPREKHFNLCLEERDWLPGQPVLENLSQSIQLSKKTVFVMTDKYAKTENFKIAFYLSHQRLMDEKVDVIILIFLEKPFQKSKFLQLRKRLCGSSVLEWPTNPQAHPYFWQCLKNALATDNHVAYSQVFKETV
Summary of the method: as §1

[2] = Homo sapiens, THP-1, human IL-1β production

SMILES	pEC50 (human TLR8)	pIC50 [1, 2]	pEC50 (human TLR7)	pIC50 ([1]; human IL-1β production)
Nc1cc(CCCO)c2ccc(-n3cccn3)cc2n1 [Compound 216, 3-(2-amino-7-(1H-pyrazol-1-yl)quinolin-4-yl)propan-1-ol]	< 4.00	5.65	< 4.00	–
CC(=O)NCCc1cc(N)nc2cc(-c3ccn[nH]3)ccc12 [Compound 217, N-(2-(2-amino-7-(1H-pyrazol-5-yl)quinolin-4-yl)ethyl)acetamide]	< 4.00	4.84	< 4.00	–
Nc1cc(CCCCO)c2ccc(-c3ccn[nH]3)cc2n1 [Compound 218, 4-(2-amino-7-(1H-pyrazol-5-yl)quinolin-4-yl)butan-1-ol]	< 4.00	5.92	< 4.00	–
Nc1cc(CCCO)c2ccc(-c3ccsn3)cc2n1 [Compound 219, 3-(2-amino-7-(isothiazol-3-yl)quinolin-4-yl)propan-1-ol]	< 4.00	5.56	< 4.00	–
Nc1cc(OC[C@@H](O)CO)c2ccc(-c3ccn[nH]3)cc2n1 [Compound 220, (S)-3-((2-amino-7-(1H-pyrazol-5-yl)quinolin-4-yl)oxy)propane-1,2-diol]	< 4.00	6.24	< 4.00	–
Nc1cc(OC[C@H](O)CO)c2ccc(-c3ccn[nH]3)cc2n1 [Compound 221]	< 4.00	6.28	< 4.00	–
N#CCCCNc1cc(N)nc2cc(-c3ccn[nH]3)ccc12 [Compound 222]	< 4.00	7.22	< 4.00	–
CC(C)(CNc1cc(N)nc2cc(-c3ccn[nH]3)ccc12)S(C)(=O)=O [Compound 223]	< 4.00	5.87	< 4.00	–
Nc1cc(NCCc2ncn[nH]2)c2ccc(-c3ccn[nH]3)cc2n1 [Compound 224]	< 4.00	6.66	< 4.00	–
Nc1cc(NCCc2cnc[nH]2)c2ccc(-c3ccn[nH]3)cc2n1 [Compound 225]	< 4.00	6.89	< 4.00	–
Nc1cc(NCc2c[nH]nn2)c2ccc(-c3ccn[nH]3)cc2n1 [Compound 226]	< 4.00	6.14	< 4.00	–
Nc1cc(NCc2nc[nH]n2)c2ccc(-c3ccn[nH]3)cc2n1 [Compound 227]	< 4.00	6.48	< 4.00	–
Nc1cc(NCc2cn[nH]c2)c2ccc(-c3ccn[nH]3)cc2n1 [Compound 228]	< 4.00	6.80	< 4.00	–
Cn1ccc(CNc2cc(N)nc3cc(-c4ccn[nH]4)ccc23)n1 [Compound 229]	< 4.00	7.05	< 4.00	–
Nc1cc(NCc2cnco2)c2ccc(-c3ccn[nH]3)cc2n1 [Compound 230]	< 4.00	6.27	< 4.00	–
Nc1cc(NCCCn2cncn2)c2ccc(-c3ccn[nH]3)cc2n1 [Compound 231]	< 4.00	5.90	< 4.00	–
Nc1cc(N[C@@H]2CCC[C@@H]2O)c2ccc(-c3ccn[nH]3)cc2n1 [Compound 232]	< 4.00	6.64	< 4.00	–
Nc1cc(N[C@H]2C[C@H](O)C2)c2ccc(-c3ccn[nH]3)cc2n1 [Compound 233]	< 4.00	7.05	< 4.00	–

SMILES	pEC50 (human TLR8)	pIC50 [1, 2]	pEC50 (human TLR7)	pIC50 ([1]; human IL-1β production)
Nc1cc(N[C@H]2C[C@@H](O)C2)c2ccc(-c3ccn[nH]3)cc2n1 [Compound 234]	< 4.00	6.64	< 4.00	–
Nc1cc(N[C@H]2CCC[C@H]2O)c2ccc(-c3ccn[nH]3)cc2n1 [Compound 235]	< 4.00	6.07	< 4.00	–
Cc1cn(CCNc2cc(N)nc3cc(-c4ccn[nH]4)ccc23)nn1 [Compound 236]	< 4.00	5.58	< 4.00	–
Cc1nc[nH]c1CNc1cc(N)nc2cc(-c3ccn[nH]3)ccc12 [Compound 237]	< 4.00	5.59	< 4.00	–
Nc1cc(NCCCc2cccnc2)c2ccc(-c3ccn[nH]3)cc2n1 [Compound 238]	< 4.00	5.83	< 4.00	–
Cc1ncsc1CCNc1cc(N)nc2cc(-c3ccn[nH]3)ccc12 [Compound 239]	< 4.00	5.32	< 4.00	–
Nc1cc(NCc2ncc[nH]2)c2ccc(-c3ccn[nH]3)cc2n1 [Compound 240]	< 4.00	6.62	< 4.00	–
Nc1cc(NCCCn2ccnc2)c2ccc(-c3ccn[nH]3)cc2n1 [Compound 241]	< 4.00	5.65	< 4.00	–
Cn1nccc1CNc1cc(N)nc2cc(-c3ccn[nH]3)ccc12 [Compound 242]	< 4.00	5.63	< 4.00	–
Cn1cnc(CNc2cc(N)nc3cc(-c4ccn[nH]4)ccc23)c1 [Compound 243]	< 4.00	5.99	< 4.00	–
Nc1cc(NCc2cncs2)c2ccc(-c3ccn[nH]3)cc2n1 [Compound 244]	< 4.00	6.46	< 4.00	–
Nc1cc(N[C@H]2CC[C@@H](O)C2)c2ccc(-c3ccn[nH]3)cc2n1 [Compound 245]	< 4.00	5.87	< 4.00	–
Nc1cc(N[C@H]2CC[C@H](O)C2)c2ccc(-c3ccn[nH]3)cc2n1 [Compound 246]	< 4.00	6.77	< 4.00	–
Nc1cc(N[C@@H]2CC[C@H](O)C2)c2ccc(-c3ccn[nH]3)cc2n1 [Compound 247]	< 4.00	6.32	< 4.00	–
Nc1cc(N[C@@H]2CC[C@@H](O)C2)c2ccc(-c3ccn[nH]3)cc2n1 [Compound 248]	< 4.00	6.48	< 4.00	–
Nc1cc(NCc2ncco2)c2ccc(-c3ccn[nH]3)cc2n1 [Compound 249]	< 4.00	7.30	< 4.00	–
Nc1cc(N[C@H]2CCCC[C@H]2O)c2ccc(-c3ccn[nH]3)cc2n1 [Compound 250]	< 4.00	–	< 4.00	5.76
